Measured values published in US10231954B2, “Neurodegenerative therapies” (LYTIX BIOPHARMA AS, priority 2014, dated 2019).

Tests used:
Assay type in all cases: biochemical
RSK2 = RSK2 (Homo sapiens, UniProt P51812); assay: Kinase profiling RSK2; conditions: 100 micromolar inhibitor concentration; 100 is no change
Excerpt: (§1) Any value less that 25 is considered to be highly significant inhibition.

PKD1 = biological target: T1, PKD1 (Homo sapiens, UniProt Q15139); assay: Kinase profiling PKD1
T1 sequence (Q15139 1-912): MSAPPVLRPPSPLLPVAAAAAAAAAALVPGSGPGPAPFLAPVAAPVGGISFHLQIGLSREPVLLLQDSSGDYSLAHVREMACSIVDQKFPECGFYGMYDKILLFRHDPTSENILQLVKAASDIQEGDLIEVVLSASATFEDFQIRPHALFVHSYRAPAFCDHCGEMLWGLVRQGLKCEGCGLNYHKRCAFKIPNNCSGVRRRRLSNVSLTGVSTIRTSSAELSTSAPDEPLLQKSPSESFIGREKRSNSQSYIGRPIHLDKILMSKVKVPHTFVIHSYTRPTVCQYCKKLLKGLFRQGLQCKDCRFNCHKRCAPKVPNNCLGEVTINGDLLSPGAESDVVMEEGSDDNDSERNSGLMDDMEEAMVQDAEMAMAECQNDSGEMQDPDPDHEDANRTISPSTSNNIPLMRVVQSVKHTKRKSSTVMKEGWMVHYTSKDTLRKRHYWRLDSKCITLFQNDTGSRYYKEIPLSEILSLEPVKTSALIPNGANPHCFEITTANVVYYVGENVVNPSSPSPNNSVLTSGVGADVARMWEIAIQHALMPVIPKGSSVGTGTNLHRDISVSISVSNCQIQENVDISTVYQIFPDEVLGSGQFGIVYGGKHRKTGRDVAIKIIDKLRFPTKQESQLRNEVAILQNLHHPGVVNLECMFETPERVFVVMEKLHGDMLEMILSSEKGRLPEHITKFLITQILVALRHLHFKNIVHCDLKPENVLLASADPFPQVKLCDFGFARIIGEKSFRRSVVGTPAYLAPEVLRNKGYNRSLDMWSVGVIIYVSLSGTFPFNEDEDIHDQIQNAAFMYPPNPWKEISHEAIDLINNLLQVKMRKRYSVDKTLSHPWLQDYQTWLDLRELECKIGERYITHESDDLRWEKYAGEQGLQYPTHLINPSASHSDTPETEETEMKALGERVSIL
Excerpt: as §1

ERK1 = ERK1 (Homo sapiens, UniProt P27361); assay: Kinase profiling ERK1; conditions: 100 micromolar inhibitor concentration; 100 is no change
Chain of ERK1 (P27361 whole entry, species assumed): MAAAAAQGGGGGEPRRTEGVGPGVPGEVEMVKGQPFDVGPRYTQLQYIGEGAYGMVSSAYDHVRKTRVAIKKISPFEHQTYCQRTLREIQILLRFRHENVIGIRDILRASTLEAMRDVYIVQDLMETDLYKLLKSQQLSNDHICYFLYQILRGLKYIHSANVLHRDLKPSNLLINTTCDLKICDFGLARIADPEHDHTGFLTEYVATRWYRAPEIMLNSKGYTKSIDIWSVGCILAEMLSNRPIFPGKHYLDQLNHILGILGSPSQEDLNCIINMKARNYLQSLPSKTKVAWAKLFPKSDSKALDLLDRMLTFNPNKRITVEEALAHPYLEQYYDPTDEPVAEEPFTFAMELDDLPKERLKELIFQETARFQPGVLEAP
Excerpt: as §1

JNK3 = JNK3 (Homo sapiens, UniProt P53779); assay: Kinase profiling JNK3; conditions: 100 micromolar inhibitor concentration; 100 is no change
Chain of JNK3 (P53779 whole entry, species assumed): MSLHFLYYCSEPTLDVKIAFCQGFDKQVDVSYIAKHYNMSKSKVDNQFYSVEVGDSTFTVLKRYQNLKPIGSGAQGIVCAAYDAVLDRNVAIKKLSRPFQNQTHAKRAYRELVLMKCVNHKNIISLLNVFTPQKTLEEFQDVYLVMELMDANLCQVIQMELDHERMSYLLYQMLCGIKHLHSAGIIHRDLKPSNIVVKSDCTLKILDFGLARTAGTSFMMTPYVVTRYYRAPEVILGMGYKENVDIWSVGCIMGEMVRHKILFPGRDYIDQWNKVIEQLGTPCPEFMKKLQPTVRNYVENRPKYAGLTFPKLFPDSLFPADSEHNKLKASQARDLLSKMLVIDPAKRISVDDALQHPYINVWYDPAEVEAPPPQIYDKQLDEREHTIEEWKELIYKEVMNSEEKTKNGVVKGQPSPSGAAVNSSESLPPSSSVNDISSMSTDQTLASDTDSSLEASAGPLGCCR
Excerpt: as §1

RSK1 = RSK1 (Homo sapiens, UniProt Q15418); assay: Kinase profiling RSK1
Chain of RSK1 (Q15418 whole entry, species assumed): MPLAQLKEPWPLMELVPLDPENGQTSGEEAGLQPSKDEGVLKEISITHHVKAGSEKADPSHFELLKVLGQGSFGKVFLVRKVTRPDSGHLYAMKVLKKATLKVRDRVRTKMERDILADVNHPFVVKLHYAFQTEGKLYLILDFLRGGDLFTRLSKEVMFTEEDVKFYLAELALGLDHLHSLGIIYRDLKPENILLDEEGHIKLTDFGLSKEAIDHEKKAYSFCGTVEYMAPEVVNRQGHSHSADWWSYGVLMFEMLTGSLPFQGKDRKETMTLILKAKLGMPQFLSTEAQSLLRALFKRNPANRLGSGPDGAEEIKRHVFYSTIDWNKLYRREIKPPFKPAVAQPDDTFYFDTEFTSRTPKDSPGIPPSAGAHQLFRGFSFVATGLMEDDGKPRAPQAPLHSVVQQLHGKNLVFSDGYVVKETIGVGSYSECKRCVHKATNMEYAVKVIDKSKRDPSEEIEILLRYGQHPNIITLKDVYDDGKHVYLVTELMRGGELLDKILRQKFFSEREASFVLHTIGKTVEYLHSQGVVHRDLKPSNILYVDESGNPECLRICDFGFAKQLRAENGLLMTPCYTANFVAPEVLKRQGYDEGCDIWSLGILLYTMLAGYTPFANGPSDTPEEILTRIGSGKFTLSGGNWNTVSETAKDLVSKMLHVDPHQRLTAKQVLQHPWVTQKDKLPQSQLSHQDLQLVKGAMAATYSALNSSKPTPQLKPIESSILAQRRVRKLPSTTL
Excerpt: as §1

CHK2 = CHK2 (Homo sapiens, UniProt O96017); assay: Kinase profiling CHK2; conditions: 100 micromolar inhibitor; 100 = no change
Chain of CHK2 (O96017 whole entry, species assumed): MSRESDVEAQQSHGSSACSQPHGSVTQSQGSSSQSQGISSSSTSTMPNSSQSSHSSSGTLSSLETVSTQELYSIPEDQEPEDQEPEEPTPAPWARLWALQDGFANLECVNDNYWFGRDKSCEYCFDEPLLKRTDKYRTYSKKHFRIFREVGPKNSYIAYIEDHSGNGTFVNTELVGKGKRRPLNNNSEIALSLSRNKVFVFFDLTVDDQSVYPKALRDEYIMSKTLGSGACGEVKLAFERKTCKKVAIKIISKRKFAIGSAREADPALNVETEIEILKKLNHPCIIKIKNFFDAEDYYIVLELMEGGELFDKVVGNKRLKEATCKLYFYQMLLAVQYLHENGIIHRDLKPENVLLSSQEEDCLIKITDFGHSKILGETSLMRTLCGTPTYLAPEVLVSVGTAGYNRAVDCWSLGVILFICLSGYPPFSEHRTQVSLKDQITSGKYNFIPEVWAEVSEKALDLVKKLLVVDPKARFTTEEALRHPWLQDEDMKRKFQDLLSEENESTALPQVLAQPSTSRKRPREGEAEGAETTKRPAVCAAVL
Excerpt: as §1

BTK = BTK (Homo sapiens, UniProt Q06187); assay: Kinase profiling BTK; conditions: 100 micromolar inhibitor; 100 = no change
Chain of BTK (Q06187 whole entry, species assumed): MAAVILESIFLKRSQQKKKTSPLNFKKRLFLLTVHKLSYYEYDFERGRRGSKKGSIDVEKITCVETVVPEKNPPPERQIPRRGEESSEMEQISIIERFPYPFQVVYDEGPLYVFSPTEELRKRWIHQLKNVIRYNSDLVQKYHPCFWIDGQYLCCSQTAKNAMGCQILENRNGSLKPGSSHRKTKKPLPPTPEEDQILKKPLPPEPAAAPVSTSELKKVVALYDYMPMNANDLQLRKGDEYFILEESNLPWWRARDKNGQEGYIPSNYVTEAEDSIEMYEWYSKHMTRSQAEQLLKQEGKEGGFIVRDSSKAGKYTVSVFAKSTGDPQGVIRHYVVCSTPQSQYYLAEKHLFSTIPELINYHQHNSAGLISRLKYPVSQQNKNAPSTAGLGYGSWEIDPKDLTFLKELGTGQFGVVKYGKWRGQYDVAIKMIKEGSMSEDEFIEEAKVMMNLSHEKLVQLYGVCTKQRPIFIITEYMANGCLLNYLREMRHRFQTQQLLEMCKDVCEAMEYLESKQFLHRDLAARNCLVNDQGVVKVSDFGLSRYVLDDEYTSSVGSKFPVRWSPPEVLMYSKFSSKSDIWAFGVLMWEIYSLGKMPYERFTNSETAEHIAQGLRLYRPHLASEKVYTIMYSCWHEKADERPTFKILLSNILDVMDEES
Excerpt: as §1

CK2 = assay: Kinase profiling CK2; conditions: 100 micromolar inhibitor; 100 = no change
Excerpt: as §1

RIPK2 = RIPK2 (Homo sapiens, UniProt O43353); assay: Kinase profiling RIPK2; conditions: 100 micromolar inhibitor; 100 = no change
Chain of RIPK2 (O43353 whole entry, species assumed): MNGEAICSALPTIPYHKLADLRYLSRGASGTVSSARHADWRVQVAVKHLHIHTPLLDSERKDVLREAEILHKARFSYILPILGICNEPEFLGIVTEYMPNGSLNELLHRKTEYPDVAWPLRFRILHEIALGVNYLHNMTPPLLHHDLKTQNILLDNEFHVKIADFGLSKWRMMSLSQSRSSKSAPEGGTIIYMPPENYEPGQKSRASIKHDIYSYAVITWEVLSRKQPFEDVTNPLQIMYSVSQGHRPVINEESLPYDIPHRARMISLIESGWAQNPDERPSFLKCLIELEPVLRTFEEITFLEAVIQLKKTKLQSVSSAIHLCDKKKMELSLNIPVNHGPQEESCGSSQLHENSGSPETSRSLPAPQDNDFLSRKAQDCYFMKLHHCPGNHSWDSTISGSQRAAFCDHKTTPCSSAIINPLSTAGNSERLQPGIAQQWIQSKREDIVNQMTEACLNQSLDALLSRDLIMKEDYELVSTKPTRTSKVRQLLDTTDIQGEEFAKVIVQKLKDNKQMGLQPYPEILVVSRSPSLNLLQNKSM
Excerpt: as §1

EPH-A2 = EPH-A2 (Homo sapiens, UniProt P29317); assay: Kinase profiling EPH-A2; conditions: 100 micromolar inhibitor; 100 = no change
Chain of EPH-A2 (P29317 24-976, species assumed): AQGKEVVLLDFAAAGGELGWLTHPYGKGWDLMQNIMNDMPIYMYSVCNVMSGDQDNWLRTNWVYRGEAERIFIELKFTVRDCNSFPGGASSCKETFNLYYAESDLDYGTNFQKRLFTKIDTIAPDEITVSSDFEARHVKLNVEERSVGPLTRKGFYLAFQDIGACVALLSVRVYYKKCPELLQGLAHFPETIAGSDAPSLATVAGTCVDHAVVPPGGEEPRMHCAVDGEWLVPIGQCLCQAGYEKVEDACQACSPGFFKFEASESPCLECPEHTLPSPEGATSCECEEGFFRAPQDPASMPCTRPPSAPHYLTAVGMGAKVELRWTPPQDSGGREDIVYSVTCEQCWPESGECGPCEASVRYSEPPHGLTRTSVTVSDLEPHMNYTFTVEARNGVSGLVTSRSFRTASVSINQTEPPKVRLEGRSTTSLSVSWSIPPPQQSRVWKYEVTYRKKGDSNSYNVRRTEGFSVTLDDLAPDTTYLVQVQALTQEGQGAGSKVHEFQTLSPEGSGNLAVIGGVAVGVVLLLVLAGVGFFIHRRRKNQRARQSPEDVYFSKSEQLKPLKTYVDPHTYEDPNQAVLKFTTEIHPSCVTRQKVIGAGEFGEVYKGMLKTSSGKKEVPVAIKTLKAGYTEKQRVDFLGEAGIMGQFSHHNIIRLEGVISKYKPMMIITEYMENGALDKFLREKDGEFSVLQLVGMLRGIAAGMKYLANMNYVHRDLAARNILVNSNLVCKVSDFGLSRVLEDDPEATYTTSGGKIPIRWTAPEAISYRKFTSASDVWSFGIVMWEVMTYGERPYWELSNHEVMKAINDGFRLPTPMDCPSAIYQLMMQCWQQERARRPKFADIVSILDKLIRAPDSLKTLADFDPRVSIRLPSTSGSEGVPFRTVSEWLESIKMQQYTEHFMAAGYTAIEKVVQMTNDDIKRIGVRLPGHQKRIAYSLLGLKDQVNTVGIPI
Excerpt: as §1

EF2K = EF2K (Homo sapiens, UniProt O00418); assay: Kinase profiling EF2K; conditions: 100 micromolar inhibitor; 100 = no change
Excerpt: as §1

LKB1 = biological target: T2, LKB1 (Homo sapiens, UniProt Q15831); assay: Kinase profiling LKB1; conditions: 100 micromolar inhibitor; 100 = no change
T2 sequence (Q15831 1-433): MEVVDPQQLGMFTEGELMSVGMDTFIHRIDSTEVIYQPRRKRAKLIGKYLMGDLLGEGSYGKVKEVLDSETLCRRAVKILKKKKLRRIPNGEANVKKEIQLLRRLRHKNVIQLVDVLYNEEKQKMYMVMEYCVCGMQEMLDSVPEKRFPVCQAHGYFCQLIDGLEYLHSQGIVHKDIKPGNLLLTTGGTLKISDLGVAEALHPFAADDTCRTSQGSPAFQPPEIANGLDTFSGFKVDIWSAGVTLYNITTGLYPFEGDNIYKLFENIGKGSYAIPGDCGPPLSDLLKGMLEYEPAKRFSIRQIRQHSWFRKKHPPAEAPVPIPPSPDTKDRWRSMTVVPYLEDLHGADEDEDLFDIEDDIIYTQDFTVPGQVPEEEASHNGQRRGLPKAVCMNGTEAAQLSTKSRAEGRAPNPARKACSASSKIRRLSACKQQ
T2 sequence (Q7RTN6 1-431 partner): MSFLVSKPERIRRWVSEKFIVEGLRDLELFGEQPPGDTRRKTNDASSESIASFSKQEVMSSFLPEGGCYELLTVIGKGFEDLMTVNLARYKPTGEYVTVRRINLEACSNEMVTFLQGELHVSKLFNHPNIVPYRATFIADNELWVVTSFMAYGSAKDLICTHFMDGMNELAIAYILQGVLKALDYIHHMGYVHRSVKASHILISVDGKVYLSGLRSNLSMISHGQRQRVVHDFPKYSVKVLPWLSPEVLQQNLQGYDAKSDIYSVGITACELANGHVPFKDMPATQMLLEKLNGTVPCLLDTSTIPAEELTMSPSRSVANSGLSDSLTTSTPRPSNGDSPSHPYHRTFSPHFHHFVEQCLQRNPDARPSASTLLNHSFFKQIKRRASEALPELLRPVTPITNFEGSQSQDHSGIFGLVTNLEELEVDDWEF
T2 sequence (Q9Y376 1-341 partner): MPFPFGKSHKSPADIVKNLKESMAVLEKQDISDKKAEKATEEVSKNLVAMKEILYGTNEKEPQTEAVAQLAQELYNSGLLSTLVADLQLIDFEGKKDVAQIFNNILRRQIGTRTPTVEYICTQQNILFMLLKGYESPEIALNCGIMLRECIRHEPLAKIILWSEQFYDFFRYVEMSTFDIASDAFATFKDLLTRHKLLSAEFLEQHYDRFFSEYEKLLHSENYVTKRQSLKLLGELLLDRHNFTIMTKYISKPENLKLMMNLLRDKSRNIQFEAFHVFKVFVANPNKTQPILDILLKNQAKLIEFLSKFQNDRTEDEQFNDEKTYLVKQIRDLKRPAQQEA
Excerpt: as §1

[1] = 100 micromolar inhibitor concentration, 100 is no change
[2] = 100 micromolar inhibitor, 100 = no change

Chain of RSK2 (P51812 whole entry, species assumed): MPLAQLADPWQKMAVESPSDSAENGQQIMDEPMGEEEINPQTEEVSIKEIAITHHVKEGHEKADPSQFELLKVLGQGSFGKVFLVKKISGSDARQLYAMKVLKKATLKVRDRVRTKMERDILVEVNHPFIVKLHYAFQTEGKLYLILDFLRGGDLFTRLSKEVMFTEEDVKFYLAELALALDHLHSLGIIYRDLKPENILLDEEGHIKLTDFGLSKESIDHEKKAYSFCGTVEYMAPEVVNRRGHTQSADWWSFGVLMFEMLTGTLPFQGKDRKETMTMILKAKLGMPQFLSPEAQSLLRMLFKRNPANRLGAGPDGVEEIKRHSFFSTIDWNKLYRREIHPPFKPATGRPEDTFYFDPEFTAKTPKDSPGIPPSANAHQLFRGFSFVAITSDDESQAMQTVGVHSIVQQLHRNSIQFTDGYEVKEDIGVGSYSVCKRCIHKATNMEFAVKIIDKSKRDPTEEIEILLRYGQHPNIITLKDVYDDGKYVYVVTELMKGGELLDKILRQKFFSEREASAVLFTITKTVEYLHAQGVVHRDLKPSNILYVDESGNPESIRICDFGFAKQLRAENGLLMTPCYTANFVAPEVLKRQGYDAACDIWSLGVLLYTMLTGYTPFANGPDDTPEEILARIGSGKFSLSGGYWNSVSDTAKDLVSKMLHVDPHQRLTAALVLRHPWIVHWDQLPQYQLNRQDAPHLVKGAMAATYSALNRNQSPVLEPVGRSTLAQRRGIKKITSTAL

Compound	residual kinase activity, RSK2 (RSK2)	residual kinase activity, PKD1 (PKD1; [1])	residual kinase activity, ERK1 (ERK1)	residual kinase activity, JNK3 (JNK3)	residual kinase activity, RSK1 (RSK1; [1])	residual kinase activity, CHK2 (CHK2)	residual kinase activity, BTK (BTK)	residual kinase activity, PKD1 (PKD1; [2])	residual kinase activity, CK2 (CK2)	residual kinase activity, RIPK2 (RIPK2)	residual kinase activity, EPH-A2 (EPH-A2)	residual kinase activity, EF2K (EF2K)	residual kinase activity, LKB1 (LKB1)	residual kinase activity, RSK1 (RSK1; [2])
CC(=O)Nc1ccccc1C(=O)Nc1nc2ccc(O)cc2s1 [Compound 08-39]	2	32	18	53	30									
COc1cccc(NC(=O)Nc2nc3cc(O)ccc3s2)c1 [Compound 13-62]						18	25	41	24	6	81	85	91	25
COc1ccc2sc(NC(=O)c3ccc(NC(C)=O)cc3)nc2c1 [MS:LY-2-77]	81	114	87	88	85									
COc1ccc2sc(NC(=O)c3cccc(NC(C)=O)c3)nc2c1 [MS:LY-2-85]	32	49	86	62	54									
CC(=O)Nc1ccc(C(=O)Nc2nc3cc(O)ccc3s2)cc1 [MS:LY-2-87]	28	52	70	66	29									
CC(=O)Nc1cccc(C(=O)Nc2nc3cc(O)ccc3s2)c1 [MS:LY-2-89]	8	22	54	36	13									
